In PMC7290078, “Agonist bias and agonist‐dependent antagonism at corticotrophin releasing factor receptors” (Pharmacology Research & Perspectives, 2020):
No end group written: not given here.

Experiments:
[1] = target: T1, CRF2 receptor (hCRF2α) (Homo sapiens, UniProt Q13324); experiment: cAMP accumulation (LANCE) in Cos7 cells transfected with hCRF2α, agonist stimulation; assay type: cell-based
T1 construct: host or cells: Cos7 cells, transient transfection (PEI), pcDNA3.0/3.1 vector
T1 sequence (Q13324 1-411): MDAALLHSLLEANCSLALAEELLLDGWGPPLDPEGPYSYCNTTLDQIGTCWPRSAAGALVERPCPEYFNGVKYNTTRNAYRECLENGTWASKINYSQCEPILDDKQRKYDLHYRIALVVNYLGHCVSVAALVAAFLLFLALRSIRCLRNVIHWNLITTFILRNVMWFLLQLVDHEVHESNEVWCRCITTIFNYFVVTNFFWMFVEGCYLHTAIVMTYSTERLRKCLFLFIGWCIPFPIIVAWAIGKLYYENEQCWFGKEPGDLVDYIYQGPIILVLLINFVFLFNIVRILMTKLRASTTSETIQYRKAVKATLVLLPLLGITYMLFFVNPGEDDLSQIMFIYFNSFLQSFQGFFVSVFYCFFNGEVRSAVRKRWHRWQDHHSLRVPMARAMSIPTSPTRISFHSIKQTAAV
From the text: (§1) Plasmids containing hCRF1α and hCRF2α (GenBank accession numbers AY457172 and AY449734) were obtained from the cDNA Resource Centre (Bloomsburg University) and are referred to as CRF1 and CRF2 in this manuscript. Hemagglutinin (HA) epitope‐tagged human Calcitonin (CT) receptor (CT(a) splice variant) and myc‐tagged human RAMP1 were used as described previously. ^27 HA‐tagged human calcitonin receptor‐like receptor (CLR), N‐terminal FLAG‐tagged human RAMP3 and N‐terminal myc‐tagged human RAMP3 were a gift from Professor David Poyner (Aston University) and Professor Patrick Sexton (Monash University), respectively. N‐terminal FLAG‐tagged human RAMP2 was used as described previously. ^28 All receptors and RAMPs were cloned in pcDNA3.0 or pcDNA3.1 plasmid vectors. All plasmid inserts were sequenced at the Centre for Genomics, Proteomics and Metabolomics (University of Auckland) and the sequences were verified prior to use.
(§2) Cos7, HEK‐293S, and HEK‐293T cells were cultured as described previously. ^28 , ^29 Cos7 cells were originally supplied by the ATCC to Associate Professor Nigel Birch (University of Auckland). HEK‐293S cells were a gift from Professor David Poyner (Aston University) and HEK‐293T cells a gift from Professor John Taylor (University of Auckland). Briefly, all cell lines were cultured in Dulbecco's Modified Eagle Medium (DMEM) supplemented with 8% heat inactivated fetal bovine serum (FBS) and maintained in a humidified incubator at 37°C with 5% CO2. For transfection, cells were counted (Countess CounterTM; Life Technologies) and plated at a density of 20 000 cells per well in 96‐well plates. The cells were transiently transfected 48 hours prior to assaying using polyethylenimine (PEI), as described previously. ^28 , ^29 In all experiments a total of 0.25 μg DNA was transfected per well. In the majority of experiments 0.25 μg DNA of receptor‐containing plasmid or the pcDNA3.1 plasmid without an insert was used. For experiments involving RAMPs, 0.125 μg of receptor DNA and 0.125 μg of RAMP‐containing plasmid DNA were transfected to give a 1:1 ratio of receptor to RAMP. Where the RAMP or receptor were transfected alone, the ratio of DNA was made up with the pcDNA3.1 plasmid.
cAMP accumulation in Cos7 cells transfected with hCRF1α or hCRF2α receptors was measured using the LANCE cAMP detection assay kit (PerkinElmer Life and Analytical Sciences) as described previously. ^30 Briefly, culture media was removed and replaced with DMEM containing 0.1% bovine albumin serum (BSA) and 1 mmol/L 3‐isobutyl‐1‐methylxanthine (IBMX) for 30 minutes at 37°C. Cells were incubated for an additional 15 minutes at 37°C with media or agonist concentrations of 1 pmol/L to 1 µmol/L for agonist only assays or 10 pmol/L to 10 µmol/L concentrations for antagonist experiments. Antagonists were added simultaneously or immediately prior to the addition of agonists. To stop cell stimulation and extract cAMP, the contents of the wells were replaced with 50 µL absolute ethanol. Samples were left at −20°C for a minimum of 10 minutes. The ethanol was evaporated and replaced with 50 µL of cAMP detection buffer. Samples were shaken for 15 minutes before 5 µL cell lysate was transferred to a white 384‐well optiplate and processed for cAMP quantification as described previously. ^31 Samples were read using an Envision plate reader (PerkinElmer). cAMP concentrations were determined from a standard curve generated in duplicate.
In all experiments the position of peptides and antagonists (pharmacology) or transfected receptors (ELISAs) on assay plates was randomized during each independent experiment, which are independent biological replicates. In all cases, duplicate, triplicate, or quadruplicate technical replicates were conducted for each independent experiment.

[2] = target: T1, CRF2 receptor (hCRF2α); experiment: IP1 accumulation (IP-one Gq) in Cos7 cells transfected with hCRF2α, agonist stimulation; assay type: cell-based
From the text: as §1, §2
The IP‐one Gq assay kit (Cisbio) was used to quantify accumulated myo‐inositol‐1‐phosphate (IP1), a by‐product of IP3 produced after receptor‐mediated Gαq activation in Cos7 and HEK‐293S cells. Briefly, culture media was removed and replaced with DMEM containing 0.1% BSA for 30 minutes at 37°C. Cells were then incubated with media containing 50 mmol/L lithium chloride (LiCl) for an additional 0‐120 minutes (time courses) or 90 minutes at 37°C in the presence or absence of an antagonist. Agonist concentrations of 1 pmol/L to 10 µmol/L were used for agonist only assays or 10 pmol/L to 10 µmol/L concentrations for antagonist experiments. After cell stimulation, 14 µL of stimulation buffer was added to each well. Three microlitres of each detection antibody were added in turn to the plate and incubated at room temperature for 1 hour. Fifteen microliters of sample was then transferred to a 384‐well optiplate and read by an Envision plate reader (PerkinElmer). IP1 concentrations were calculated from a standard curve generated in duplicate.
In all experiments the position of peptides and antagonists (pharmacology) or transfected receptors (ELISAs) on assay plates was randomized during each independent experiment, which are independent biological replicates. […]

| Substance | EC50 ([1]; cAMP, hCRF2α, Cos7, 15 min at 37°C, 1 mmol/L IBMX, 1 pmol/L to 1 µmol/L agonist, mean ± SEM, n = 5) [nM] | EC50 ([2]; IP1, hCRF2α, Cos7, 90 min at 37°C, 50 mmol/L LiCl, 1 pmol/L to 10 µmol/L agonist, mean ± SEM, n = 5) [nM] | concentration‐dependent increase in cAMP ([1]; CRF2 receptor) | ΔΔlog(τ/K A) (signaling bias) ([1]; cAMP (reference pathway), hCRF2α, reference agonist UCN1, mean ± SEM, n = 5) | Hill slope ([1]; cAMP, CRF2 receptor) | Δlog(τ/K A) (relative efficacy) ([1]; cAMP, hCRF2α, reference agonist UCN1, mean ± SEM, n = 5) | concentration‐dependent increase in IP1 accumulation ([2]; CRF2 receptor) | Hill slope ([2]; IP1, CRF2 receptor) | Δlog(τ/K A) (relative efficacy) ([2]; IP1, hCRF2α, reference agonist UCN1, mean ± SEM, n = 5) | ΔΔlog(τ/K A) (signaling bias) ([2]; IP1 relative to cAMP, hCRF2α, reference agonist UCN1, mean ± SEM, n = 5) |
| --- | --- | --- | --- | --- | --- | --- | --- | --- | --- | --- |
| DNPSLSIDLTFHLLRTLLELARTQSQRERAEQNRIIFDSV-NH2 [UCN1] | 0.0955 | 4.68 | – | – | – | – | – | – | – | – |
| IVLSLDVPIGLLQILLEQARARAAREQATTNARILARVGHC-NH2 (C-terminus assumed) [UCN2] | – | – | concentration‐dependent increases | 0.00 ± 0.27 | not significantly different from one | −0.55 ± 0.19 | concentration‐dependent increases | not significantly different from one | −1.42 ± 0.13 | −0.87 ± 0.23 |
